# Results published in patent US7964191B2, “Compositions and methods for the treatment of ophthalmic disease” (Allergan, Inc., priority 2006, dated 2011).
# Tested on: diabetic retinopathy
# Assay: Treatment of a patient with proliferative (left eye) and non-proliferative (right eye) diabetic retinopathy
# Type: in vivo, human
# Conditions: Example 10
# Description: A person complains of vision loss in the left eye. The patient reports an onset of Type II diabetes, and has been under treatment with metformin hydrochloride for 10 years.
# The patient is given an intravitreal injection comprising 150 μl of a solution of hyaluronic acid in which biodegradable PLGA microspheres (mean particle diameter of about 40 μm; lactide to glycolide ratio 75:25) are suspended. See U.S. patent application Ser. No. 11/368,845, filed Mar. 6, 2006, incorporated by reference herein in its entirety. Approximate weight of microspheres per dose was 20 mg. In addition to the PLGA polymer, the microspheres comprise approximately 5% by weight of an SDF-1α derivative that comprises a disulfide-linked dimer comprising two identical peptides, with each peptide comprising amino acids 1-9 of SDF-1 (these positions correspond to amino acids 22-47 of SEQ ID NO: 4, 5, and 6) with glycine substituted for proline in each position 2 (corresponding to position 23 of SEQ ID NO: 4, 5, and 6).
# The patient's visual acuity (and retinal condition under dilation) are monitored every two weeks for 8 weeks.
# The patient of Example 9 is treated by subconjunctival injection in each eye (100 μl volume in hyaluronic acid solution) of a single fibrous monolithic PLGA intraocular implant (approximately 120 μg; diameter approximately 3 mm) comprising 50% by weight of a CXCR4-inhibitory compound: N-[(S)-1-(1-naphthyl)ethyl]-5-(2-methylbenzyl)amino-2-(S)-[4-[N-(imidazole-2-ylmethyl)aminomethyl]benzoyl]aminopentanoylamide (see Yamzaki et al., U.S. Publication No. 2004/0254221.
# After 8 weeks visual acuity is tested, and has improved by 2 lines in each eye.
# The patient of Example 9 is administered an intravitreal injection in each eye comprising 150 μl of a solution of hyaluronic acid in which biodegradable PLGA microspheres (mean particle diameter of about 40 μm; lactide to glycolide ratio 75:25) are suspended. Approximate weight of microspheres per dose was 20 mg. […]
compound,measurement,setting,value
Cc1ccccc1CNCCC[C@H](NC(=O)c1ccc(CNCc2ncc[nH]2)cc1)C(=O)N[C@@H](C)c1cccc2ccccc12 [N-[(S)-1-(1-naphthyl)ethyl]-5-(2-methylbenzyl)amino-2-(S)-[4-[N-(imidazole-2-ylmethyl)aminomethyl]benzoyl]aminopentanoylamide],fluorescein angiography: leakage of blood into the retina,after 6 weeks,does not reveal any leakage of blood into the retina
same,"improvement in visual acuity, each eye",after 8 weeks,2 lines
same,macular edema,"subconjunctival PLGA implant, 50% by weight compound, each eye, after 6 weeks",barely observable
